These results are taken from publication PMC4750701, “Role of Mitochondrial RNA Polymerase in the Toxicity of Nucleotide Inhibitors of Hepatitis C Virus” (Antimicrobial Agents and Chemotherapy, 2016).

What is called CC50 is the concentration giving 50% cytotoxicity. As usually defined, the IC50 is the concentration needed to halve the response being measured.

Data set [1] relates to nuclear DNA-encoded succinate dehydrogenase (SDH-A; complex II) protein level. In words: Nuclear protein synthesis (SDH-A, MitoBiogenesis in-cell ELISA) in PC-3 cells. It is filed as cell-based, human. Particulars: human, read-out: Mean CC50 ± SD causing General cellular toxicity: Protein synthesis. A digest of the protocol:
(§1)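 PC-3 cells were exposed to compound for 5 days. Protein levels of nuclear-encoded SDH-A and mitochondrial-encoded COX-1 were then quantified by in-cell ELISA (quantitative immunocytochemistry).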
In general terms: In an ELISA, binding on a coated surface is turned into a signal by an enzyme label.

The target in another data set is T1, recombinant human PolRMT (Homo sapiens, UniProt O00411).
T1 construct: purchased Enzymax (Lexington, KY)
T1 sequence (O00411 42-1230): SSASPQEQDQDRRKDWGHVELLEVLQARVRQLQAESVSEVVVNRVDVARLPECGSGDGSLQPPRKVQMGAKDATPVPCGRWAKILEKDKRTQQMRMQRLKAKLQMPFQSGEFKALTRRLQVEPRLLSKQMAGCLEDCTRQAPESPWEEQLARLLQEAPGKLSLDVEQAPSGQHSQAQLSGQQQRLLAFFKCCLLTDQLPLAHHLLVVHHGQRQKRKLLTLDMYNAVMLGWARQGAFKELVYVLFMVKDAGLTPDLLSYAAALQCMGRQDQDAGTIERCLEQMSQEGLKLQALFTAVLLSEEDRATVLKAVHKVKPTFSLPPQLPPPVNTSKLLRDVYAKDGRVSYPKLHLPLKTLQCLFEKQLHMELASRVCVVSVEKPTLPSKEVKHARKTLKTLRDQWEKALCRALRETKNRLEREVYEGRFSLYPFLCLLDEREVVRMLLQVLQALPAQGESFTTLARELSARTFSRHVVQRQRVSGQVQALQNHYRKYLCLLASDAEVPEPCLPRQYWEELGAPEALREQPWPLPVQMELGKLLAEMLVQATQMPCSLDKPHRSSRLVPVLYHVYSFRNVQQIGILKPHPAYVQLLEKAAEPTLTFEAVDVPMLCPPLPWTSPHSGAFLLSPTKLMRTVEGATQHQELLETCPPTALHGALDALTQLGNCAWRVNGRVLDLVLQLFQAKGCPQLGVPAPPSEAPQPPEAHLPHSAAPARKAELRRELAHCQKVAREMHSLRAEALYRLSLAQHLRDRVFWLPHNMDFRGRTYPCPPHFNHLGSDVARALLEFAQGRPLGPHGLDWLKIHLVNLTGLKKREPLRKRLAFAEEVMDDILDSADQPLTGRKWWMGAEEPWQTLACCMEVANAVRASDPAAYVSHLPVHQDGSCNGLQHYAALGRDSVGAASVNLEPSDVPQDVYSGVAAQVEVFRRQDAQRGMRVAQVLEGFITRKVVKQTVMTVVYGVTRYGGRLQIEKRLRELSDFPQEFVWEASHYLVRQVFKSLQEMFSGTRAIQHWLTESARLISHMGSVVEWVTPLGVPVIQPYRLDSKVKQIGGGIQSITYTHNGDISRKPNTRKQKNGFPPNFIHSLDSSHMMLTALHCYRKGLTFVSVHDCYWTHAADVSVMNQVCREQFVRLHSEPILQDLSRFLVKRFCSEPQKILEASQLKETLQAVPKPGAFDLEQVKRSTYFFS
In words: Inhibition of PolRMT-catalyzed RNA synthesis. It is filed as biochemical. Particulars: triphosphate form of the compound tested (Table 4); read-out: Mean IC50 ± SD for PolRMT. The text has this:
(§2) Activated fish sperm DNA was purchased from USB/Affymetrix (Santa Clara, CA) and used as a template for the DNA polymerases alpha, beta, and gamma. […] The RNA and DNA oligonucleotides used in the mitochondrial RNA polymerase assay (see Table S1 in the supplemental material) were synthesized and PAGE purified by Thermo Scientific/Dharmacon (Lafayette, CO). RNA primer R12 was 5′-^32P-phosphorylated with [γ-^32P]ATP (3,000 Ci/mmol) and T4 kinase (New England BioLabs, Ipswich, MA).
(§3) Human DNA polymerase alpha, isolated from HeLa cell extracts, was from CHIMERx (Madison, WI). Recombinant human DNA polymerase beta, expressed in E. coli, was a gift from Zucai Suo at The Ohio State University. Recombinant human DNA polymerase gamma (including both the large subunit and the small subunit) was cloned, expressed, and purified from insect cells by Gilead Sciences (Foster City, CA) ([13]). RNA PolII was purchased as part of the HeLaScribe nuclear extract in vitro transcription system kit from Promega (Madison, WI). The recombinant human PolRMT and the transcription factors mitochondrial transcription factor A (mtTFA) and B2 (mtTFB2) were purchased from Enzymax (Lexington, KY). FLAG epitope-tagged RNA PolI and PolIII complexes were isolated from rat NSN1 cells and HeLa cells, respectively ([17], [18]). The inhibition of DNA polymerases alpha, beta, and gamma, PolRMT, and PolII and the rate of single-nucleotide incorporation by PolRMT have been described previously in detail ([12], [13], [19]). Inhibition of RNA PolI and PolIII was studied using published methods ([20], [21]). All concentrations were final unless noted otherwise. […] After incubation at 30°C for 20 min to 1 h, the reactions were terminated by pipetting the mixtures onto DEAE-cellulose discs (DE81; Whatman), and the products analyzed as described previously ([20], [21]).

The subject of data set [2] is mitochondrial DNA-encoded cytochrome c oxidase (COX-1; complex IV) protein level. The data set can be described thus: Mitochondrial protein synthesis assay (COX-1, MitoBiogenesis in-cell ELISA) in PC-3 cells. It is filed as cell-based, human. Particulars: human; PC-3 cells, COX-1, 5 days; read-out: Mean CC50 ± SD causing Mitochondrial toxicity: Protein synthesis. Put shortly:
as §1

The target of data set [3] is T2, Recombinant human DNA polymerase beta (Homo sapiens, UniProt P06746).
T2 construct: host or cells: E. coli
In words: Inhibition of human DNA polymerase beta. It is filed as biochemical. Particulars: triphosphate form of the compound tested; read-out: Mean IC50 ± SD for DNA Pol β.
From the text: (§4) Activated fish sperm DNA was purchased from USB/Affymetrix (Santa Clara, CA) and used as a template for the DNA polymerases alpha, beta, and gamma. The DNA template used in the RNA Pol II assay was a 1,188-bp restriction fragment containing the cytomegalovirus (CMV) immediate early promoter (Promega, Madison, WI). The RNA and DNA oligonucleotides used in the mitochondrial RNA polymerase assay (see Table S1 in the supplemental material) were synthesized and PAGE purified by Thermo Scientific/Dharmacon (Lafayette, CO). RNA primer R12 was 5′-^32P-phosphorylated with [γ-^32P]ATP (3,000 Ci/mmol) and T4 kinase (New England BioLabs, Ipswich, MA).
as §3, with “otherwise. For the RNA PolI inhibition assay, a reaction mixture containing 50 mM HEPES (pH 7.9), 20% glycerol, 100 mM KCl, 1 mM dithiothreitol (DTT), 50 μg/ml calf thymus DNA, 4 mM MgCl2, 5 or 80 μM UTP (0.25 μl of [5,6-^3H]UTP, >25 Ci/mmol; PerkinElmer), 1 mM noncompeting NTP, competing NTP (5 μM for GTP, CTP, and UTP and 25 μM for ATP), and various concentrations (0 to 500 μM) of NTP analogs was preincubated at 30°C for 5 min.” for “otherwise.”

A further data set addresses T3, RNA PolII (Homo sapiens, UniProt P24928+P30876).
T3 construct: purchased as part of the HeLaScribe nuclear extract in vitro transcription system kit; purchased Promega (Madison, WI); host or cells: HeLa nuclear extract (endogenous enzyme)
In words: Inhibition of RNA PolII (HeLaScribe nuclear extract transcription). It is filed as biochemical. Particulars: read-out: Mean IC50 ± SD for RNA PolII.
From the text: as §4
as §3, with “otherwise. For the RNA PolI inhibition assay, a reaction mixture containing 50 mM HEPES (pH 7.9), 20% glycerol, 100 mM KCl, 1 mM dithiothreitol (DTT), 50 μg/ml calf thymus DNA, 4 mM MgCl2, 5 or 80 μM UTP (0.25 μl of [5,6-^3H]UTP, >25 Ci/mmol; PerkinElmer), 1 mM noncompeting NTP, competing NTP (5 μM for GTP, CTP, and UTP and 25 μM for ATP), and various concentrations (0 to 500 μM) of NTP analogs was preincubated at 30°C for 5 min.” for “otherwise.”

Data set [4] has as its target T4, Human DNA polymerase alpha (Homo sapiens, UniProt P09884).
T4 construct: isolated from HeLa cell extracts; purchased CHIMERx (Madison, WI); host or cells: HeLa cell extracts (endogenous enzyme)
In words: Inhibition of human DNA polymerase alpha. It is filed as biochemical. Particulars: triphosphate form of the compound tested; read-out: Mean IC50 ± SD for DNA Pol α.
From the text: as §2, §3

[5] abbreviates: triphosphate form of the compound tested (Table 4).

Read-outs that look alike come from different tables or passages of the source. Some results are limits rather than exact numbers.

T4 sequence (P09884 whole entry): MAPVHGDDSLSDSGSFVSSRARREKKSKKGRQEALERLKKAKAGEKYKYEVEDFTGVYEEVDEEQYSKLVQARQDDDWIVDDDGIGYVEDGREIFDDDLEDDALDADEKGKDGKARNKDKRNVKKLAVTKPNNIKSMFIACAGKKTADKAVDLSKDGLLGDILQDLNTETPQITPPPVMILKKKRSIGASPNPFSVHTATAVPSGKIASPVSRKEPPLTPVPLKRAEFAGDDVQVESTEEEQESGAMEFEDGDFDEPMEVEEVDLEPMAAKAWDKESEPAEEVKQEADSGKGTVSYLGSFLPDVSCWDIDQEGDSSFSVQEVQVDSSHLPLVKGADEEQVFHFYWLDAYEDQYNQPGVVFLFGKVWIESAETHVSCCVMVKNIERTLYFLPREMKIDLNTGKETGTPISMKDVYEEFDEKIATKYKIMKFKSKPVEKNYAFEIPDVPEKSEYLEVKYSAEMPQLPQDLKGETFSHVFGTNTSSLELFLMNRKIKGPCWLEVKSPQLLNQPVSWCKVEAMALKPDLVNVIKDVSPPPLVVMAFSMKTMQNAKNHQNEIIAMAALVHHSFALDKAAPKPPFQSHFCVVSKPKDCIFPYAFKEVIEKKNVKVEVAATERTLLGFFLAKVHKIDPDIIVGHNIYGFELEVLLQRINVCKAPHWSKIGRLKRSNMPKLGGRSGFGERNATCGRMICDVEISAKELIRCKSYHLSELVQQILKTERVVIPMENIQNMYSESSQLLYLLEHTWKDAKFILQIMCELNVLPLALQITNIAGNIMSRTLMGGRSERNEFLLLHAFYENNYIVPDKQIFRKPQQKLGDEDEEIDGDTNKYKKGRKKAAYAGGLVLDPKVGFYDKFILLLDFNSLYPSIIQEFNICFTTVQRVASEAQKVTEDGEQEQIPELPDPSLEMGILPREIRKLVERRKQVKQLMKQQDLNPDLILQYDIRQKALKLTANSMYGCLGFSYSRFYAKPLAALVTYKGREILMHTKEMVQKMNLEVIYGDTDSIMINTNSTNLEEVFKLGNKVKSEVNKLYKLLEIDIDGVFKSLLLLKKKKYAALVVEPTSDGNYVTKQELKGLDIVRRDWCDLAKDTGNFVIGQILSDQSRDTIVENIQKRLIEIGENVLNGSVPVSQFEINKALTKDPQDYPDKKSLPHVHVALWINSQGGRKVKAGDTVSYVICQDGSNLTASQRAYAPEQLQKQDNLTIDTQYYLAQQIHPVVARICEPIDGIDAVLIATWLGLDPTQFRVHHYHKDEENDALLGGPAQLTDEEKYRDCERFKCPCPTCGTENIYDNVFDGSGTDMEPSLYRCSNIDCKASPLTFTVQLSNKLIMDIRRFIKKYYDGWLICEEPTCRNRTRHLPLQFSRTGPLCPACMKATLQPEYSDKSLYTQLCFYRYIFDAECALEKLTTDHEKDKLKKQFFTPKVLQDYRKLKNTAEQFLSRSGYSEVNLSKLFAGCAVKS
T4 sequence (Q14181 whole entry partner): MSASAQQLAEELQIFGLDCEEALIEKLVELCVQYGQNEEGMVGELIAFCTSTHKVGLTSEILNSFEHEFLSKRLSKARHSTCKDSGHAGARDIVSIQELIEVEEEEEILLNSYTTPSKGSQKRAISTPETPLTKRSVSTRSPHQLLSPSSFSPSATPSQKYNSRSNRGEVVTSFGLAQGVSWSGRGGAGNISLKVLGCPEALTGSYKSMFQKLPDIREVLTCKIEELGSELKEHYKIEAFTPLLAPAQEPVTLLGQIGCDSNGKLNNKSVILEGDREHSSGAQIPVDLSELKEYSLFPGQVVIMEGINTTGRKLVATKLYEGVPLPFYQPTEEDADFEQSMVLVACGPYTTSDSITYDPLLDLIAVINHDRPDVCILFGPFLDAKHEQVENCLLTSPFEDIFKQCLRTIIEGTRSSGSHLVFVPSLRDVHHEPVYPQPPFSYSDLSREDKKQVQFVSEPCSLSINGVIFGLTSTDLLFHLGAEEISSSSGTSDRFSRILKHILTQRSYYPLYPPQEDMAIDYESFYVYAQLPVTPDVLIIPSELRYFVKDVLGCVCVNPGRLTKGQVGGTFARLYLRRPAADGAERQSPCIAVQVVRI
T4 sequence (P49642 whole entry partner): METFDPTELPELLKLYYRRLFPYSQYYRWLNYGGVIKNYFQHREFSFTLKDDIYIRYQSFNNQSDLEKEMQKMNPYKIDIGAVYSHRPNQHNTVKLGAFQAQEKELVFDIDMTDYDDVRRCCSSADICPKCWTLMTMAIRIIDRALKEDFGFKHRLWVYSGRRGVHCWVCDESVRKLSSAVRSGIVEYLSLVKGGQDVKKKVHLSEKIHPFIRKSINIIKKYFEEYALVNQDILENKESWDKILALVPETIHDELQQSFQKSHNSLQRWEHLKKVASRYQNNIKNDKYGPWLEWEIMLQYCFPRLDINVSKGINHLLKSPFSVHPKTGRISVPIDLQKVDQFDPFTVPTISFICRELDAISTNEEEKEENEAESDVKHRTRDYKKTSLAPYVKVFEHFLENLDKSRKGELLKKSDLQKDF
T4 sequence (P49643 whole entry partner): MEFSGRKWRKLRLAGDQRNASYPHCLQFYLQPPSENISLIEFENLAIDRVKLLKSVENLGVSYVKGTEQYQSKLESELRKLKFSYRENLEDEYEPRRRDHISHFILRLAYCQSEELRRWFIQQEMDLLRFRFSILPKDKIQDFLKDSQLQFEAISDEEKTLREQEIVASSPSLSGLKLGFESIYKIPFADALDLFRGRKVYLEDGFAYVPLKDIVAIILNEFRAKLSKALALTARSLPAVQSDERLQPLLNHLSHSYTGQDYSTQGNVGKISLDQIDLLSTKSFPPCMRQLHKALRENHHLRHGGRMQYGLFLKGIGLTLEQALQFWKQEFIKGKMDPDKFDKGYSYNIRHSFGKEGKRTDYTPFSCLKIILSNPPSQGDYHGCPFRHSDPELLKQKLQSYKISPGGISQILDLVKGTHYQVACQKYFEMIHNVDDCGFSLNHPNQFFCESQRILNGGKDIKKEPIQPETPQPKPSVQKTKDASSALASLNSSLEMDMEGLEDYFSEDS

In the case of `COc1nc(N)nc2c1ncn2[C@@H]1O[C@H](COP(=O)(N[C@@H](C)C(=O)OCC(C)(C)C)Oc2cccc3ccccc23)[C@@H](O)[C@@]1(C)O` (stereo partly shown) [BMS-986094], the CC50 at 5 days in data set [1] is 0.84 ± 0.26 µM. The IC50 on recombinant human PolRMT came out at 52 µM. Besides, the CC50 in data set [2] came out at 0.68 ± 0.1 µM.

For the molecule `C[C@@]1(O)[C@H](O)[C@@H](CO)O[C@H]1n1ccc(N)nc1=O` [2′CMeC, 2′-C-methyl (2′CMe) cytidine], the IC50 in data set [3] is greater than 200 µM; at recombinant human PolRMT, 230 ± 90 µM; at RNA PolII (setting [5]) it was greater than 200 µM; in data set [4] it was greater than 200 µM. Besides, the CC50 at 5 days in data set [1] came out at 68 ± 26 µM; in data set [2], 50 ± 25 µM.

`C[C@@]1(O)[C@H](O)[C@@H](COP(=O)(O)OP(=O)(O)OP(=O)(O)O)O[C@H]1n1cnc2c(=O)[nH]c(N)nc21` [2′CMeGTP]: the IC50 in data set [3] was greater than 200 µM; on RNA PolII (nucleotide analogs (Table 6)), greater than 500 µM; at RNA PolII (setting [5]), greater than 200 µM; in data set [4] it was greater than 200 µM.

In the case of `C[C@@]1(F)[C@H](O)[C@@H](CO)O[C@H]1n1ccc(N)nc1=O` [PSI-6130], the IC50 in data set [3] was greater than 200 µM; on recombinant human PolRMT, greater than 500 µM; at RNA PolII (setting [5]), greater than 200 µM; in data set [4], greater than 200 µM. Further, the results for the CC50 at 5 days in data set [1] and in data set [2] were greater than 100 µM and 70 ± 14 µM, respectively.

As for `CCOc1nc(N)nc2c1ncn2[C@@H]1O[C@@H]2COP(=O)(OC(C)C)O[C@H]2[C@@]1(C)F` (stereo partly shown) [PSI-938], the IC50 in data set [3] was greater than 200 µM; at recombinant human PolRMT, greater than 500 µM; at RNA PolII (setting [5]), greater than 200 µM; in data set [4], greater than 200 µM. Also, the CC50 at 5 days in data set [1] and in data set [2] was greater than 100 µM each time.

As to `CC(C)OC(=O)[C@H](C)N[P@](=O)(OC[C@H]1O[C@@H](n2ccc(=O)[nH]c2=O)[C@](C)(F)[C@@H]1O)Oc1ccccc1` [Sofosbuvir], the IC50 in data set [3] was greater than 200 µM; on recombinant human PolRMT, greater than 500 µM; at RNA PolII (setting [5]) it was greater than 200 µM; in data set [4], greater than 200 µM. Moreover, the CC50 at 5 days in data set [1] and in data set [2] was greater than 100 µM each time.

Regarding `[N-]=[N+]=N[C@]1(CO)O[C@@H](n2ccc(N)nc2=O)[C@H](O)[C@@H]1O` [4′-AzidoC, 4′-azido cytidine], the IC50 in data set [3] was greater than 200 µM; on recombinant human PolRMT, 3.8 ± 2 µM; on RNA PolII (setting [5]), greater than 200 µM; in data set [4], greater than 200 µM. For the same molecule, the CC50 at 5 days was greater than 50 µM in data set [1] and 11 ± 3 µM in data set [2].

Regarding `CC(C)OC(=O)[C@H](C)N[P@](=O)(OC[C@H]1O[C@@](C#N)(c2ccc3c(N)ncnn23)[C@](C)(O)[C@@H]1OC(=O)C(C)C)Oc1ccccc1` [GS-6620], the IC50 in data set [3] is greater than 200 µM; on recombinant human PolRMT, greater than 500 µM; at RNA PolII (setting [5]) it was greater than 200 µM; in data set [4], greater than 200 µM. In addition, the CC50 at 5 days in data set [1] was found to be 45 ± 2 µM. Also, the half-maximal cytotoxic concentration (CC50) in data set [2] was determined as 31 ± 5 µM.
